Measured values reported in ChEMBL document CHEMBL2073940, “Vinblastine and sulfinpyrazone export by the multidrug resistance protein MRP2 is associated with glutathione export” (Br J Cancer, 2000).
One block for each molecule: values may come before it.

Experiments:
Assay type in all cases: functional, cell-based
Conditions in all cases: dog, mdck-ii
[1] = biological target: T1, Multidrug resistance-associated protein 1 (Homo sapiens, UniProt P33527); test: TP_TRANSPORTER: inhibition of Glutathione efflux (Benzbromarone: 25 uM) in MRP1-expressing MDCKII cells
T1 sequence (P33527 whole entry): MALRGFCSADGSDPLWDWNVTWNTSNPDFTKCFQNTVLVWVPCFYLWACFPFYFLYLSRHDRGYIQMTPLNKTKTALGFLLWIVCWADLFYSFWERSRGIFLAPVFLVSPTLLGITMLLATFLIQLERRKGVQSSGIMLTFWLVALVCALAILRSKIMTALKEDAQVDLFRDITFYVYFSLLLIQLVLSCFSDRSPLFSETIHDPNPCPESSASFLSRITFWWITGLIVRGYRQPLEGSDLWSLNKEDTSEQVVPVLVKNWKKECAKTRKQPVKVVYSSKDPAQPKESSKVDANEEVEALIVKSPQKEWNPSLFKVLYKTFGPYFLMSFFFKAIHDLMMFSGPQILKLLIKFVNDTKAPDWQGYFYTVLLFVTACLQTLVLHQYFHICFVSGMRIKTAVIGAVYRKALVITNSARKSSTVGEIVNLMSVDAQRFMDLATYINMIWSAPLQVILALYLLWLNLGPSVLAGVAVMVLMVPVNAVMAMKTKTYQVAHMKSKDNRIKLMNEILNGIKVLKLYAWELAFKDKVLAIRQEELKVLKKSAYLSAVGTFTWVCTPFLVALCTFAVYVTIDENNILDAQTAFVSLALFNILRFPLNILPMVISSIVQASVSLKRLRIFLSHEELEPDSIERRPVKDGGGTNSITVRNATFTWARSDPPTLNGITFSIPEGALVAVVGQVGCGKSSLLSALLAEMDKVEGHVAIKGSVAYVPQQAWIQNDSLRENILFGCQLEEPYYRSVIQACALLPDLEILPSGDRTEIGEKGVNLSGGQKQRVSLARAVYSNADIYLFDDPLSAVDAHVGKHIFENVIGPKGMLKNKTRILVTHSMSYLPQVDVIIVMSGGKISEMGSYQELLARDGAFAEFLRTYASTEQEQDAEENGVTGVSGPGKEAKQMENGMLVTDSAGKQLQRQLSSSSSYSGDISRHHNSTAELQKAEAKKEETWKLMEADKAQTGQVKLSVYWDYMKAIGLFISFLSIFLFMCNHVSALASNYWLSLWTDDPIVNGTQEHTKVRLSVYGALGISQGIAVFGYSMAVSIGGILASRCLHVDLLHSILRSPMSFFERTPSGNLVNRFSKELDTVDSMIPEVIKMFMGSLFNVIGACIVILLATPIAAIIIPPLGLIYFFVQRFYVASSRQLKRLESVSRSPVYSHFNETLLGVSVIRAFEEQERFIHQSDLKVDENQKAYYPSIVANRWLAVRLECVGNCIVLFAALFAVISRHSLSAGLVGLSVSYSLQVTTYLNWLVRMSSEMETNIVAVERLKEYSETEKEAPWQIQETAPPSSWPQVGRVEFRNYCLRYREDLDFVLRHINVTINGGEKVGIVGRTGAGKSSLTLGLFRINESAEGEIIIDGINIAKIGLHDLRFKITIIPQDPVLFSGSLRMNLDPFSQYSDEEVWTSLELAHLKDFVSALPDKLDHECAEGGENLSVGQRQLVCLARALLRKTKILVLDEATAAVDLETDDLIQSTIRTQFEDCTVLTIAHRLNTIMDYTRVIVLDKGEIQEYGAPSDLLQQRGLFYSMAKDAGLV

[2] = biological target: T1, Multidrug resistance-associated protein 1; test: TP_TRANSPORTER: inhibition of Glutathione efflux (Indomethacin: 400 uM) in MRP1-expressing MDCKII cells
[3] = biological target: T1, Multidrug resistance-associated protein 1; test: TP_TRANSPORTER: inhibition of Glutathione efflux (Sulfinpyrazone: 3200. uM) in MRP1-expressing MDCKII cells
[4] = biological target: ATP-binding cassette sub-family C member 2 (Homo sapiens, UniProt Q92887); test: TP_TRANSPORTER: transepithelial transport (basal to apical) in MRP2-expressing MDCKII cells
Chain of ATP-binding cassette sub-family C member 2 (Q92887 whole entry): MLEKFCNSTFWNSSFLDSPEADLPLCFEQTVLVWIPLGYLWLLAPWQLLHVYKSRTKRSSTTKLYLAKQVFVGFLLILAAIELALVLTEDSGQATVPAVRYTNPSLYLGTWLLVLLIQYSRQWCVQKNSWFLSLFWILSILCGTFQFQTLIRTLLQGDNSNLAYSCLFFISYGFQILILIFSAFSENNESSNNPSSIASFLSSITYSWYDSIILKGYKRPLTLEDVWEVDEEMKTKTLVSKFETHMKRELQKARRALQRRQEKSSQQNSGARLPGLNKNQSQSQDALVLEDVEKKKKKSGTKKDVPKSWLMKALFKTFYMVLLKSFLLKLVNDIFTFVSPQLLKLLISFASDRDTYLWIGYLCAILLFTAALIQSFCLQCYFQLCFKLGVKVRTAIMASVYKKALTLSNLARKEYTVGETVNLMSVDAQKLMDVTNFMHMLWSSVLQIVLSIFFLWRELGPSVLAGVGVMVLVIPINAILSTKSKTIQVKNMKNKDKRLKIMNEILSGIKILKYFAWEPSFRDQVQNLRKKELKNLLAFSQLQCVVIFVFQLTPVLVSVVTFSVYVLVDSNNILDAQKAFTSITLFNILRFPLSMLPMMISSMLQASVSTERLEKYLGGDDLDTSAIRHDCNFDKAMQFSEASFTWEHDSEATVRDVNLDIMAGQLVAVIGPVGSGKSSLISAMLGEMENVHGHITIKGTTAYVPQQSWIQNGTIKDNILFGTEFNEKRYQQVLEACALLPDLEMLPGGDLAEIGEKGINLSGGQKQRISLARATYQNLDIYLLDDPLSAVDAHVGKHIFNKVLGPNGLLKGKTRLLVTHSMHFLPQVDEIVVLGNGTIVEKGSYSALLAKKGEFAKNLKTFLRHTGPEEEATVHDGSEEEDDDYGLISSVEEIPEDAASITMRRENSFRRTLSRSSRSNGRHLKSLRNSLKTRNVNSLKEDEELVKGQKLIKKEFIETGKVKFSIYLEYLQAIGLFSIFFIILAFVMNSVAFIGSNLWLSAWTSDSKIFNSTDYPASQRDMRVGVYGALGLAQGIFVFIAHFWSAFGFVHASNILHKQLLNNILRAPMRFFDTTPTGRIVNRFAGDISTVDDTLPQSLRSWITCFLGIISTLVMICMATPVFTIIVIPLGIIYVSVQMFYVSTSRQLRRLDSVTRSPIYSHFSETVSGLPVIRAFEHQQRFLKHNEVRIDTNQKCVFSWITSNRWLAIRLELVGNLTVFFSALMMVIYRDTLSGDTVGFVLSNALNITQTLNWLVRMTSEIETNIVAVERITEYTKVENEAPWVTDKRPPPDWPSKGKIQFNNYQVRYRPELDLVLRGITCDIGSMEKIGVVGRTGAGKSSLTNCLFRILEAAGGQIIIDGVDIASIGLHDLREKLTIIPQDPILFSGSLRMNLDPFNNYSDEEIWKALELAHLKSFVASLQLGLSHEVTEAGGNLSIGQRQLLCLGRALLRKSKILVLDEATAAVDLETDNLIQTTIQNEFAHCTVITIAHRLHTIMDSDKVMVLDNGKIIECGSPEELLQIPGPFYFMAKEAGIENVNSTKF

Activity [1]: inhibitor [+]
Compound: CCc1oc2ccccc2c1C(=O)c1cc(Br)c(O)c(Br)c1 [BENZBROMARONE]

Activity [2]: inhibitor [+]
Compound: COc1ccc2c(c1)c(CC(=O)O)c(C)n2C(=O)c1ccc(Cl)cc1 [INDOMETHACIN]

Activity [3]: inhibitor [+]
Activity [4]: substrate [+]
Compound: O=C1C(CC[S+]([O-])c2ccccc2)C(=O)N(c2ccccc2)N1c1ccccc1 (centres undefined) [SULFINPYRAZONE]
